ChEMBL document CHEMBL4507259 (2021)

Assays:
[1] = target: Casein kinase I isoform alpha (Homo sapiens) (UniProt P48729); details: Compound concentration 1000.0 nM
[2] = target: Cyclin-dependent kinase 2 homolog (Plasmodium falciparum (isolate 3D7)) (UniProt P61075); details: Compound concentration 1000.0 nM
[3] = target: Mitogen-activated protein kinase 9 (Homo sapiens) (UniProt P45984); details: Compound concentration 1000.0 nM
[4] = target: Ribosomal protein S6 kinase alpha-5 (Homo sapiens) (UniProt O75582); details: Compound concentration 1000.0 nM
Chain of Ribosomal protein S6 kinase alpha-5 (Homo sapiens) (O75582 whole entry, looked up): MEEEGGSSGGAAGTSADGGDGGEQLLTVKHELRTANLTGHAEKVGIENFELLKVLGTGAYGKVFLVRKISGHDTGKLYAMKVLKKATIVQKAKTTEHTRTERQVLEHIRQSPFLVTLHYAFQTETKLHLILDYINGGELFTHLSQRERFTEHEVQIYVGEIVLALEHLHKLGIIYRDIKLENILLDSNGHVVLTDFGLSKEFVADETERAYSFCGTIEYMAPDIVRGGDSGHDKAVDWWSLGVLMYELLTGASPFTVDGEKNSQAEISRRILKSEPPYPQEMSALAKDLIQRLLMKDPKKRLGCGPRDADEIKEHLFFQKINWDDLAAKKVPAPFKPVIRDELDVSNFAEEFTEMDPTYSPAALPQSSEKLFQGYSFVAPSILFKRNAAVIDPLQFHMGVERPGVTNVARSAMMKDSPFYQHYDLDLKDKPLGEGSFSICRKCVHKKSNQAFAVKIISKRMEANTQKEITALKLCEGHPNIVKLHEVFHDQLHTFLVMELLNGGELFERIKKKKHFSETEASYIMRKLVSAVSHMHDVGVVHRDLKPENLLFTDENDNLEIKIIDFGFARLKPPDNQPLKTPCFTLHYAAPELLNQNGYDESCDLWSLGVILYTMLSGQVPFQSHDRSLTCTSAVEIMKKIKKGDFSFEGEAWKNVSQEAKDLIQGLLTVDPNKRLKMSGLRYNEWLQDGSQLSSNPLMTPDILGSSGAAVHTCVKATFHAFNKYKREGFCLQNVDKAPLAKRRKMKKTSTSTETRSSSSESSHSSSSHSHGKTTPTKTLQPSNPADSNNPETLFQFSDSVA

[5] = target: T1, Alpha-1A adrenergic receptor (Homo sapiens) (UniProt P35348); experiment: alpha 1A (h) CEREP ligand profiling; details: filed as antagonist, Compound concentration 10.0 uM
T1 sequence (whole entry): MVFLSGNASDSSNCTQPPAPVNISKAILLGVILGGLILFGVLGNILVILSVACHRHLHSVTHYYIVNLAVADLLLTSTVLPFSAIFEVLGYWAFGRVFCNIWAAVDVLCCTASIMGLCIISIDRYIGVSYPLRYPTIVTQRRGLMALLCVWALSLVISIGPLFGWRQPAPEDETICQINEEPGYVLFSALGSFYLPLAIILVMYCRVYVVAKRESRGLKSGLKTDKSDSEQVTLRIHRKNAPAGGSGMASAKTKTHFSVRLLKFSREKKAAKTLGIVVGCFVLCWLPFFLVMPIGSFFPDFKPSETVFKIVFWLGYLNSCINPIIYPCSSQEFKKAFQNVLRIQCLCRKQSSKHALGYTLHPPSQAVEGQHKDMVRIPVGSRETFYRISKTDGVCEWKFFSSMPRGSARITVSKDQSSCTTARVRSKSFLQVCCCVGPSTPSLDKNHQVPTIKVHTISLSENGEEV

[6] = target: Histamine H1 receptor (Homo sapiens) (UniProt P35367); details: Compound concentration 10.0 uM
[7] = target: Phosphorylase b kinase regulatory subunit alpha, liver isoform (Homo sapiens) (UniProt P46019); details: Compound concentration 1000.0 nM
[8] = target: Serine/threonine-protein kinase RIO2 (Homo sapiens) (UniProt Q9BVS4); details: Compound concentration 1000.0 nM
[9] = target: Atypical kinase COQ8A, mitochondrial (Homo sapiens) (UniProt Q8NI60); details: Compound concentration 1000.0 nM
[10] = target: Cyclin-G-associated kinase (Homo sapiens) (UniProt O14976); details: Compound concentration 1000.0 nM
[11] = target: T2, 5-hydroxytryptamine receptor 1A (Homo sapiens) (UniProt P08908); details: Compound concentration 10.0 uM
T2 sequence (whole entry): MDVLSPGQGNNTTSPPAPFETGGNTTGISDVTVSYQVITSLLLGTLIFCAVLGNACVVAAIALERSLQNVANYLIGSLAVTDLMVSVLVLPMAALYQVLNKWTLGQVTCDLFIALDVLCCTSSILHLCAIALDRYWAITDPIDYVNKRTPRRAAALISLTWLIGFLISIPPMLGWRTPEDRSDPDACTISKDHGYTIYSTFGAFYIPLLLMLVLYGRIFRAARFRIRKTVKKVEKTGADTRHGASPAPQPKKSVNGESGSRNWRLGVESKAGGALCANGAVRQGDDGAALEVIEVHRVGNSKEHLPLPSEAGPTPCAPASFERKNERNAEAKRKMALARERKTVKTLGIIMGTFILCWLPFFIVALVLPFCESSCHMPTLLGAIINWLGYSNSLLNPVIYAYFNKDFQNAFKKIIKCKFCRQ

[12] = target: Serine/threonine-protein kinase LATS2 (Homo sapiens) (UniProt Q9NRM7); details: Compound concentration 1000.0 nM
[13] = target: GABA-A receptor; anion channel (Rattus norvegicus) (UniProt O09028+P15431+P18506+P18508+P19969+P20236+P23574+P23576+P28471+P28473+P30191+P62813+P63079+P63138+Q91ZM7+Q9ES14); details: Compound concentration 10.0 uM
[14] = test system: Receptor-type tyrosine-protein kinase FLT3 (Homo sapiens), P36888 [D835H]; details: Compound concentration 1000.0 nM
[15] = test system: Mast/stem cell growth factor receptor Kit (Homo sapiens), P10721 [A829P]; details: Compound concentration 1000.0 nM
[16] = target: Activin receptor type-2B (Homo sapiens) (UniProt Q13705); details: Compound concentration 1000.0 nM
[17] = target: Serine/threonine-protein kinase MRCK alpha (Homo sapiens) (UniProt Q5VT25); details: Compound concentration 1000.0 nM
Chain of Serine/threonine-protein kinase MRCK alpha (Homo sapiens) (Q5VT25 whole entry): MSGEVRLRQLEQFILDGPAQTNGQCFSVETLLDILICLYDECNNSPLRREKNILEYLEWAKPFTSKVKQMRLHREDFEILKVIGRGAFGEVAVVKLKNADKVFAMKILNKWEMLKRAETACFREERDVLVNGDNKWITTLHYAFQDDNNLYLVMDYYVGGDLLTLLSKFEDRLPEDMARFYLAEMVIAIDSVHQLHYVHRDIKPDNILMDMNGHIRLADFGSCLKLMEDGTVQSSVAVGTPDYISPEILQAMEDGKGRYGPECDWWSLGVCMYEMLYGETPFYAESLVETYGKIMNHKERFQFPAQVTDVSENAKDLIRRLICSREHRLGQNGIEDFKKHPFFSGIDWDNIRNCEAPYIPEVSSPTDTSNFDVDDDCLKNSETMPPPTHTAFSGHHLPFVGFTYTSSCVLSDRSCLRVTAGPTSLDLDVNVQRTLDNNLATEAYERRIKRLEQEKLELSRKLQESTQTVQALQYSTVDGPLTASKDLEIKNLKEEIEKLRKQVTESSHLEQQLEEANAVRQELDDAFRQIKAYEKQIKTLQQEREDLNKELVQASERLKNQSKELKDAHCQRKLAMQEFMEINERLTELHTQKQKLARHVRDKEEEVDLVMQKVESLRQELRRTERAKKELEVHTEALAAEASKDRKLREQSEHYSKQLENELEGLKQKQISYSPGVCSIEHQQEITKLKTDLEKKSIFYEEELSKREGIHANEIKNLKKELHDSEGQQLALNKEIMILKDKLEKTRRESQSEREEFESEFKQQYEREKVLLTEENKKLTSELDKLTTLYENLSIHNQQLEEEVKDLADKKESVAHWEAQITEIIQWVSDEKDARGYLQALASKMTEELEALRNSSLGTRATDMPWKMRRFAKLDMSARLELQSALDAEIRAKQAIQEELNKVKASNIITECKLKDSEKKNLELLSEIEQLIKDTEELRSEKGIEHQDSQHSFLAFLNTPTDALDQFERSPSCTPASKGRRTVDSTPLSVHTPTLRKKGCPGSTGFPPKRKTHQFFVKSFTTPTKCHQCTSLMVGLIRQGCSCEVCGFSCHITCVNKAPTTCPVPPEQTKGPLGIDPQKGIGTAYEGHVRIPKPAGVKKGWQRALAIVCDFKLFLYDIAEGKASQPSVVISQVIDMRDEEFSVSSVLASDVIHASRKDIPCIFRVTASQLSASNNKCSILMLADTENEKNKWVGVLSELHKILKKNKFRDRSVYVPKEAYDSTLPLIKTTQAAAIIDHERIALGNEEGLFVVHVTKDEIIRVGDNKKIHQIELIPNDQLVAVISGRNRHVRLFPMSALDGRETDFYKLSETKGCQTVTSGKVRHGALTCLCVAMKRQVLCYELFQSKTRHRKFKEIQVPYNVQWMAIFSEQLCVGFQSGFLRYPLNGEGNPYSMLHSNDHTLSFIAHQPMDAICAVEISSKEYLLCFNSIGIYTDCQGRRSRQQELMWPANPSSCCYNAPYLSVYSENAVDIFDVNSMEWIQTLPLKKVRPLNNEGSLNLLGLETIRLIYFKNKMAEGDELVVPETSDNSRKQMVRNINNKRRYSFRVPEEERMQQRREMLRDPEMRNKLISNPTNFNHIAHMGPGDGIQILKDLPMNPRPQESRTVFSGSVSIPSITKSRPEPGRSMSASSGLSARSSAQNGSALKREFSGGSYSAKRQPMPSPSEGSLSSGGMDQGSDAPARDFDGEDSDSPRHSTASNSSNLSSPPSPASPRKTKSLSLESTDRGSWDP

[18] = target: Vascular endothelial growth factor receptor 2 (Homo sapiens) (UniProt P35968); details: Compound concentration 1000.0 nM
[19] = target: Serine/threonine-protein kinase 32C (Homo sapiens) (UniProt Q86UX6); details: Compound concentration 1000.0 nM
[20] = target: Serine/threonine-protein kinase mTOR (Homo sapiens) (UniProt P42345); details: Compound concentration 1000.0 nM
[21] = target: Cyclin-dependent kinase 19 (Homo sapiens) (UniProt Q9BWU1); details: Compound concentration 1000.0 nM
Chain of Cyclin-dependent kinase 19 (Homo sapiens) (Q9BWU1 whole entry): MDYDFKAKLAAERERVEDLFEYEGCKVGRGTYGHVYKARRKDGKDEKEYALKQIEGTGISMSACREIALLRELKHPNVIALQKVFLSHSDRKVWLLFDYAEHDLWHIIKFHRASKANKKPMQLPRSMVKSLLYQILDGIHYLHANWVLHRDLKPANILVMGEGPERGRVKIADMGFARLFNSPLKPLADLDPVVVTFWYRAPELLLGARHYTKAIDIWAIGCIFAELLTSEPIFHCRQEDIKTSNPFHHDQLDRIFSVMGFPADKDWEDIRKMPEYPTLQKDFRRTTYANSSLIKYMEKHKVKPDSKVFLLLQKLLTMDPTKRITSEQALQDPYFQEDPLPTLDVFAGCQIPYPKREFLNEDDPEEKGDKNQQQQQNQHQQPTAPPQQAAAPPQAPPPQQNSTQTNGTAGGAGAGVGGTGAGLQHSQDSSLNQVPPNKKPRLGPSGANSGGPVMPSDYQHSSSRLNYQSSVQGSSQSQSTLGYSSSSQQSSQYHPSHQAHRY

[22] = target: Motilin receptor (Homo sapiens) (UniProt O43193); experiment: motilin (h) CEREP ligand profiling; details: filed as agonist, Compound concentration 10.0 uM
[23] = target: Mitogen-activated protein kinase 15 (Homo sapiens) (UniProt Q8TD08); details: Compound concentration 1000.0 nM
[24] = target: Serine/threonine-protein kinase 38-like (Homo sapiens) (UniProt Q9Y2H1); details: Compound concentration 1000.0 nM
[25] = target: Death-associated protein kinase 1 (Homo sapiens) (UniProt P53355); details: Compound concentration 1000.0 nM
[26] = target: Dual specificity mitogen-activated protein kinase kinase 5 (Homo sapiens) (UniProt Q13163); details: Compound concentration 1000.0 nM
[27] = test system: Phosphatidylinositol 4,5-bisphosphate 3-kinase catalytic subunit alpha isoform (Homo sapiens), P42336 [E545K]; details: Compound concentration 1000.0 nM
[28] = target: Serine/threonine-protein kinase TAO2 (Homo sapiens) (UniProt Q9UL54); details: Compound concentration 1000.0 nM
Chain of Serine/threonine-protein kinase TAO2 (Homo sapiens) (Q9UL54 whole entry): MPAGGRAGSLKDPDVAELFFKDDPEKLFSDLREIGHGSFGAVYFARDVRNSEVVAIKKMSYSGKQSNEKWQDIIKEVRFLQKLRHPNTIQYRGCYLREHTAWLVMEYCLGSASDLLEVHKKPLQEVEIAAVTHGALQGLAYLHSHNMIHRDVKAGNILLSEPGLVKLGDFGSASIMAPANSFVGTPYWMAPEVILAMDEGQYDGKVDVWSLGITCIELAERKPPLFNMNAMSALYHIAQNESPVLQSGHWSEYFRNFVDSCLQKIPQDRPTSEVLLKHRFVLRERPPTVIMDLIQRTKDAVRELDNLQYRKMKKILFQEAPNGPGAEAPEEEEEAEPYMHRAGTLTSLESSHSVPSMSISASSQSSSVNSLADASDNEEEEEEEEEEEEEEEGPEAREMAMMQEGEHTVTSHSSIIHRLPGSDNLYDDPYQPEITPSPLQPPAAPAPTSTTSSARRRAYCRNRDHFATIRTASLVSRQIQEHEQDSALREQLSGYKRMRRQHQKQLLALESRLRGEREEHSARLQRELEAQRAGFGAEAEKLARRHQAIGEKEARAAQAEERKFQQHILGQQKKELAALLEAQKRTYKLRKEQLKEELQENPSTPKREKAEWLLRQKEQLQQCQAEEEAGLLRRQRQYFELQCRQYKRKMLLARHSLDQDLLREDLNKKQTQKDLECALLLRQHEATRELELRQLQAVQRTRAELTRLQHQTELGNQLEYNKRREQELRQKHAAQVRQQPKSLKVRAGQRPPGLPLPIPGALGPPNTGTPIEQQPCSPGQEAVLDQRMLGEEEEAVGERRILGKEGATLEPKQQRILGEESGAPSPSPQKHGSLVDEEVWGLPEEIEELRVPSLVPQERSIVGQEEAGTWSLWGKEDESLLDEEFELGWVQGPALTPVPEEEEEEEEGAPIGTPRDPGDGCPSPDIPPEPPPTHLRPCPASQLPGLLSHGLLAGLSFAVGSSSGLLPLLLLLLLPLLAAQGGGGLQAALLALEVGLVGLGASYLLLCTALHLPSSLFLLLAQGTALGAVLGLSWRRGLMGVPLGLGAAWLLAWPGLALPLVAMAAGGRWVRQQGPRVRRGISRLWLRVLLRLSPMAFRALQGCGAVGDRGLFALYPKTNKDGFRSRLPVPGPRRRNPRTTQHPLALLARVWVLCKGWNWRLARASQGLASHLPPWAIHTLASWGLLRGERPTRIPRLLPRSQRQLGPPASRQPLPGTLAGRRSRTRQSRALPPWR

[29] = target: Sigma intracellular receptor 2 (Homo sapiens, UniProt Q5BJF2); details: Compound concentration 10.0 uM
[30] = target: Serine/threonine-protein kinase Nek3 (Homo sapiens) (UniProt P51956); details: Compound concentration 1000.0 nM

Chain of Mitogen-activated protein kinase 9 (Homo sapiens) (P45984 whole entry, looked up): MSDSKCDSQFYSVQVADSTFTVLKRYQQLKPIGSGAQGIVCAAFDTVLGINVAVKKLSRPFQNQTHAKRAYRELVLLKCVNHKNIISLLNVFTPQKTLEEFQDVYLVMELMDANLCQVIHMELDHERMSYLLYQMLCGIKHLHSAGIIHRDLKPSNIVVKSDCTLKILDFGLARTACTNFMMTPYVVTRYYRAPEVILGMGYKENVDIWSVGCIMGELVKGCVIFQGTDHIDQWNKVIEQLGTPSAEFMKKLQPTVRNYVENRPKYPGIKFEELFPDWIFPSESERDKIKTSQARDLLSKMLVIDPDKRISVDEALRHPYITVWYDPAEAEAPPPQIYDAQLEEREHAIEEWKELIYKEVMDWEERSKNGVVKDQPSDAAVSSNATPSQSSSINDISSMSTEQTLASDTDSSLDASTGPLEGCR
Chain of Casein kinase I isoform alpha (Homo sapiens) (P48729 2-337 limits assumed): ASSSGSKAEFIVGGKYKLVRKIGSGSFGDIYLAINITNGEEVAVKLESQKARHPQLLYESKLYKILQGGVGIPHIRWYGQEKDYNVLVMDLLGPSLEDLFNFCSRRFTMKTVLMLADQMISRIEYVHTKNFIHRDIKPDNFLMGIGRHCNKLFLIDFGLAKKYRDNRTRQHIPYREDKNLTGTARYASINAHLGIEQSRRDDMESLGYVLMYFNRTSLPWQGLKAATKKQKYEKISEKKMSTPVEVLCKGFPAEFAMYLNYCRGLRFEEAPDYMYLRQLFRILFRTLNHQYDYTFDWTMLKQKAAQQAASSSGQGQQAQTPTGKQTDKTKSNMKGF

SMILES: CNC(=O)Nc1ccc2c(c1)CC[C@@]21OC(=O)N(CC(=O)N(Cc2ccc(F)cc2)[C@@H](C)C(F)(F)F)C1=O [A-485]
- residual activity [1]: 93%
- residual activity [2]: 91%
- residual activity [3]: 70%
- residual activity [4]: 97%
- inhibition [5]: 29%
- inhibition [6]: 1.99%
- residual activity [7]: 97%
- residual activity [8]: 67%
- residual activity [9]: 74%
- residual activity [10]: 100%
- inhibition [11]: 6.87%
- residual activity [12]: 47%
- inhibition [13]: 8.97%
- residual activity [14]: 86%
- residual activity [15]: 79%
- residual activity [16]: 96%
- residual activity [17]: 100%
- residual activity [18]: 83%
- residual activity [19]: 88%
- residual activity [20]: 92%
- residual activity [21]: 96%
- inhibition [22]: -4%
- residual activity [23]: 74%
- residual activity [24]: 66%
- residual activity [25]: 96%
- residual activity [26]: 83%
- residual activity [27]: 80%
- residual activity [28]: 91%
- inhibition [29]: 50%
- residual activity [30]: 58%

SMILES: CNC(=O)Nc1ccc2c(c1)[C@@]1(CC2)OC(=O)N(CC(=O)N(Cc2ccc(F)cc2)[C@@H](C)C(F)(F)F)C1=O [A-486]
- residual activity [1]: 83%
- residual activity [2]: 95%
- residual activity [3]: 69%
- residual activity [4]: 74%
- inhibition [5]: 16%
- inhibition [6]: -7.68%
- residual activity [7]: 100%
- residual activity [8]: 83%
- residual activity [9]: 88%
- residual activity [10]: 100%
- inhibition [11]: 4.17%
- residual activity [12]: 68%
- inhibition [13]: 9.54%
- residual activity [14]: 99%
- residual activity [15]: 100%
- residual activity [16]: 100%
- residual activity [17]: 98%
- residual activity [18]: 84%
- residual activity [19]: 100%
- residual activity [20]: 100%
- residual activity [21]: 100%
- inhibition [22]: 41%
- residual activity [23]: 93%
- residual activity [24]: 67%
- residual activity [25]: 100%
- residual activity [26]: 89%
- residual activity [27]: 76%
- residual activity [28]: 95%
- inhibition [29]: 55.5%
- residual activity [30]: 69%
